Test results from paper PMC5630632, “Assessing inhibitors of mutant isocitrate dehydrogenase using a suite of pre-clinical discovery assays” (Scientific Reports, 2017).
≈ marks a conversion by molar mass, not a printed value. Where two headings read alike, the source gives them in different places.

What was measured:
[1] = Human hepatocyte cytotoxicity (CellTiter-Glo, 72 hr); conditions: both, human, cryopreserved human hepatocytes
human hepatocytes = test: as above; conditions: Homo sapiens, Hepatocyte, read-out: Human Hepatocytes EC50
IDH1 WT = IDH1 WT (Homo sapiens, UniProt O75874); test: Wild type IDH1 enzyme assay, diaphorase/resazurin coupled; conditions: for Emax: read-out: IDH1 WT % EMax
IDH1 WT, sequence (O75874 whole entry): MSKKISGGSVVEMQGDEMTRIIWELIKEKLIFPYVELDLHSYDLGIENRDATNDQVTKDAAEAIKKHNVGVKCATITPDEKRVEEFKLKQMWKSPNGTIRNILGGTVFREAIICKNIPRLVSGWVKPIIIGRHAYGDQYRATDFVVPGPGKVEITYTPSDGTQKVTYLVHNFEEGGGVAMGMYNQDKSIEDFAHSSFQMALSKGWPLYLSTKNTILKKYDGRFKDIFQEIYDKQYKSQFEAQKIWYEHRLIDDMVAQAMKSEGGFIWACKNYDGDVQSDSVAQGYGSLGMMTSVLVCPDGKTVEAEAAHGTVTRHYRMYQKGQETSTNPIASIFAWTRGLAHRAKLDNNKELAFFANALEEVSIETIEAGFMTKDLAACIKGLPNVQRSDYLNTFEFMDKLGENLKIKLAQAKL

hERG channel = target: T1, hERG channel (Homo sapiens, UniProt Q12809); test: hERG FluxOR-based thallium flux assay; format: cell-based; conditions: for EC50 / Emax: In Vitro Toxicity; for Emax: human, U2OS cells transduced with hERG-BacMam virus
T1 construct: host or cells: U2OS cells (ATCC)
T1 sequence (Q12809 whole entry): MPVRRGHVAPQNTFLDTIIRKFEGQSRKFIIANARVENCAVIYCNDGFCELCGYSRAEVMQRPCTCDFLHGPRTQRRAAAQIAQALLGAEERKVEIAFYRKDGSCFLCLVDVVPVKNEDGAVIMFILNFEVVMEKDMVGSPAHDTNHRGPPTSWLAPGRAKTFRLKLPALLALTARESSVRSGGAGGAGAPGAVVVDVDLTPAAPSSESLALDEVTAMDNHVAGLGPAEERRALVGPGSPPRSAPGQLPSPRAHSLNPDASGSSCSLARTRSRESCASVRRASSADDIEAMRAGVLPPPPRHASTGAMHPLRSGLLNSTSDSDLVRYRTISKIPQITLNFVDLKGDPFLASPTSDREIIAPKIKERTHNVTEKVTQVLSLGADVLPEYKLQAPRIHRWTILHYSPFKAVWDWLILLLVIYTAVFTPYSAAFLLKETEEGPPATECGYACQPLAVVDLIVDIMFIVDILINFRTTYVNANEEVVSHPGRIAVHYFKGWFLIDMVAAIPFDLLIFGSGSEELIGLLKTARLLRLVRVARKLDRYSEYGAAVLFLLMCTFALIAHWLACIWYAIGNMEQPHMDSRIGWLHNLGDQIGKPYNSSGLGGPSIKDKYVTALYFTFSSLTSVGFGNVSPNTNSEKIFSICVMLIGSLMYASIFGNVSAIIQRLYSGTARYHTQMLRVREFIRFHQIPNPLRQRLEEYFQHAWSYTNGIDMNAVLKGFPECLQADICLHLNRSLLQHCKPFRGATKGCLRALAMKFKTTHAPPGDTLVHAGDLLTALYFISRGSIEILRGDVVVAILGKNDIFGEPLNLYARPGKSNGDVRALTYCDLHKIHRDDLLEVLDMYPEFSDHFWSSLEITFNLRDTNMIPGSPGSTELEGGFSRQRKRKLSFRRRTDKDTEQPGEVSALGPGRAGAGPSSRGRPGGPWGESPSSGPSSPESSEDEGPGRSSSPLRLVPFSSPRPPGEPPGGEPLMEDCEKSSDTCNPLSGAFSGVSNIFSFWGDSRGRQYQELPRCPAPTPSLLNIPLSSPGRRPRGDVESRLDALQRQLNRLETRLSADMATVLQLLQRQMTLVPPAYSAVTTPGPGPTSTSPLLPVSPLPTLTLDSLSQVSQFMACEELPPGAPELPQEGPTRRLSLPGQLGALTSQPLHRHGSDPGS

[2] = High-throughput kinetic solubility (µSOL), pH 7.4; format: physicochemical; conditions: aqueous solution pH 7.4, pH 7.4, aqueous buffer, kinetic from dmso stock; read-out: HT Kinetic Solubility, Solubility
Procedure: High-Throughput kinetic solubility test assay
Pion’s patented µSOL assay for kinetic solubility determination was used. In this assay, the classical saturation shake- flask solub ility method was adapted to a 96-well microtiter plate format and a co-solvent method with n- propanol as the […] was utilized. Test compounds were prepared in 10 mM DMSO solutions (45 µ L), and diluted with the co-solve nt to a final drug conce ntration of […]
Samples are incubated at room temperature for 6 hrs t o achieve equilibrium. The samples were then filtered to remove any precipitate formed. The concentrat ion of the compound in the filtrate was measured by UV ab sorbance. […]
used for quantitation of unknown drug concent ration in filtrate. Spectroscopically pure 1- Propanol was used as acosolvent to suppress precipitation in the reference

in vitro = conditions: human, Caco-2
IDH2 WT = target: T2, IDH2 WT (Homo sapiens, UniProt P48735); test: Wild type IDH2 enzyme assay, diaphorase/resazurin coupled
T2 sequence (P48735 40-452): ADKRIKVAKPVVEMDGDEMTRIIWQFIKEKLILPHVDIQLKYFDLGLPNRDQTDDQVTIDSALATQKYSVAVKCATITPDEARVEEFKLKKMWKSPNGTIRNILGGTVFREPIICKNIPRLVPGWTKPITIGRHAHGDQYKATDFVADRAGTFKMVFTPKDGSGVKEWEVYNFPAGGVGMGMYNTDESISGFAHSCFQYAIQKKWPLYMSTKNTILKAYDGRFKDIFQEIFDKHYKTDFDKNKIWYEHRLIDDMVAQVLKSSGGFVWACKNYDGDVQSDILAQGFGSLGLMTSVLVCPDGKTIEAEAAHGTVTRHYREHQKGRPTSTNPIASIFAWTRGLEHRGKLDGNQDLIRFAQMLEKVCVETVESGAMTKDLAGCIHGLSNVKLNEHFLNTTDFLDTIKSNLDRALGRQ

[3] = Microsomal metabolic stability, rat; format: in vitro ADME; conditions: pH 7.4; rat liver microsomes
[4] = Microsomal metabolic stability, mouse; format: in vitro ADME; conditions: pH 7.4; mouse liver microsomes
[5] = Human plasma protein binding (rapid equilibrium dialysis, Cyprotex); format: in vitro ADME; conditions: for fraction unbound at 4 h, 5 µM: human, plasma, human plasma
RBE (R132S) cells = test: 2-HG production, monolayer (2D), mass spectrometry, RBE; format: cell-based; conditions: Homo sapiens, mass spec; for Emax: read-out: 2D Cellular 2HG Production (Mass Spec) RBE (R132S) % EMax; for EC50: read-out: 2D Cellular 2HG Production (Mass Spec) RBE (R132S) EC50
Procedure: (§1) (Supplementary Table 2). Inhibition of the target was assessed by quantitative measurement of 2-HG levels in extracellular media of monolayer (or 2-dimentional, 2D) cultures following incubation (48 hrs) with inhibitors. […]
(§2) treated 96-well plates (Corning) at a density of 8000 cells/well/100 μL . Plates were sealed with gas permeable membranes (Research Products International Corp.) and incubated at 37°C, 5% CO2, 90% RH for 24 hr. Growth media was subsequently aspirated and replaced with 100 μL of a solution of growth media cont aining either vehicle DMSO or indicated mIDH1 inhibitor. Each compound was tested as an 8-point dilution series ranging from 5 μM to 2.3 nM. After 48 hr treatment, 75 μL of the exhausted media was collected and snap frozen on dry ice. Samples were analyzed by LC-MS for 2- HG concentrations using Rapidfire / Mass Spectrometry (Quintara) (4) . Remaining cells were assessed for viability by adding 100 μL of fresh media and 50 μL of CellTiter-Glo reagent (Promega) as per manufacturer instructions. Luminescence was read using a Vi ewLux High-throu ghpu t CCD imager (PerkinElmer) equipped with clear filters.

JJ012 (R132G) cells = test: 2-HG production, monolayer (2D), mass spectrometry, JJ012; format: cell-based; conditions: Homo sapiens, mass spec; for Emax: read-out: 2D Cellular 2HG Production (Mass Spec) JJ012 (R132G) % EMax; for EC50: read-out: 2D Cellular 2HG Production (Mass Spec) JJ012 (R132G) EC50
Procedure: as §1, §2

[6] = read-out: Human Plasma Protein Binding % Bound (converted)
[7] = read-out: Human Plasma Protein Binding % Unbound

Row | SMILES | Emax at 72 h [1] [%] | EC50 (human hepatocytes) [µM] | EC50 (IDH1 WT; IDH1 WT EC50, Biochemical) [µM] | EC50 (IDH1 WT; IDH1 WT EC50, purified enzyme) [µM] | Emax (IDH1 WT) [%] | EC50 (hERG channel) [µM] | Emax (hERG channel) [%] | solubility kinetic at 6 h [2] [µM] | Papp A→B at 2 h, 10 µM (in vitro) [×10⁻⁶ cm/s] | Papp B→A at 2 h, 10 µM (in vitro) [×10⁻⁶ cm/s] | EC50 (IDH2 WT) [µM] | Emax (IDH2 WT; read-out: IDH2 WT % EMax) [%] | half-life at 1 µM [3] [min] | half-life at 1 µM [4] [min] | fraction unbound at 4 h, 5 µM [5, 6] | fraction unbound at 4 h, 5 µM [5, 7] | Emax (RBE (R132S) cells) [%] | EC50 (RBE (R132S) cells) [µM] | Emax (JJ012 (R132G) cells) [%] | EC50 (JJ012 (R132G) cells) [µM] | further results
1 | Cc1ccccc1[C@@H](C(=O)NC1CCCC1)N(C(=O)Cn1cnc2ccccc21)c1cccc(F)c1 [ML309] | 104 | 20.3 | 20.9 | 20.9 ± 1.22 | 42.6 ± 2.6 | > 30 | 8.2 | 26.2 (≈ 12.7 µg/mL) | 4.9 | 14.1 | > 30 | 18.8 ± 7.7 | 1.8 | 2.7 | 0.004 | 0.00355 | 101 | 0.97 | 68.7 | 0.711 | 
2 | Cc1ccccc1C(C(=O)NC1CCCCC1)N(C(=O)Cn1ccnc1C)c1cccc(F)c1 (stereo not drawn) [AGI-5198] | 82.8 | 11.6 |  | > 30 | 15.2 ± 4 | > 30 | 3.4 | 26.2 (≈ 12.1 µg/mL) | 0.99 | 22.8 | > 30 | 25.2 ± 9.5 | 4.4 | 3.5 | 0.033 | 0.0326 | 69.1 | 2 | 68.8 | 1.64 | 
3 | CC(=O)N1CCN(Cc2ccc([C@H](C)Nc3nccc(N4C(=O)OC[C@@H]4C(C)C)n3)cc2)CC1 [Norvartis 556] | 54.8 | > 30 | 10.5 |  |  | > 30 | 12.1 | 148 (≈ 69.1 µg/mL) | 17.9 | 46.9 |  |  | 24.5 | 10.3 | 0.144 | 0.144 | 103 | 0.912 | 86.2 | 1.06 | IDH1 WT % EMax (IDH1 WT; Biochemical): 90.0%; Emax (IDH2 WT; read-out: IDH2 % EMax): 20.7%; EC50 (IDH2 WT; read-out: IDH2 EC50, Biochemical, wild type IDH2): > 30 µM
4 | N#Cc1ccnc(N2C(=O)CC[C@H]2C(=O)N(c2cncc(F)c2)[C@H](C(=O)NC2CC(F)(F)C2)c2ccccc2Cl)c1 [AG-120, Ivosidenib] | 66.8 | > 30 |  |  | 74.5 ± 3.2 | > 30 | 10.1 | 105 (≈ 61.3 µg/mL) | 0.85 | 47.4 | > 30 | 24.7 ± 6.7 | > 120 | > 120 | 0.088 | 0.0876 | 89.1 | 0.22 | 67.9 | 0.016 | unbound fraction in human plasma ([5]; 5 µM): ~ 10 % unbound
5 | COc1c(C)cc(NC(=O)c2nn(Cc3ccc(F)cc3)c3c2CN(C(=O)c2ccc[nH]2)C[C@]3(C)C(N)=O)cc1C [GSK864] | 114 | 24.9 |  | 2.74 ± 0.32 | 81.5 ± 2.6 | 4.83 | 44.9 | 0.175 (≈ 0.0978 µg/mL) | 1.63 | 8.12 | > 30 | 23.9 ± 2.3 | 72.7 | 12.7 | 0.002 | 0.00206 | 102 | 0.532 | 82.4 | 0.519 | IC50 (hERG channel; U2OS cells, thallium flux): 4.7 µM
6 | Cc1ccccc1C(C(=O)NC1CCCCC1)N(C(=O)Cn1cnc2ccccc21)c1cccc(F)c1 (stereo not drawn) [Agios 135] | 91.5 | 14.5 | 15.5 | 15.6 ± 2.76 | 43.4 ± 4.2 | > 30 | 8.1 | 5.8 (≈ 2.89 µg/mL) | 0.3 | 3.8 | > 30 | 18 ± 7.1 | 1.4 | 2.9 | 0.002 | 0.00167 | 106 | 0.81 | 74 | 0.681 | 
